Data reported in patent publication US20220193111A1, “Method of Treatment” (The University Court of the University of Edinburgh, priority 2018, published 2022).

Tests used:
[1] = tested on: HUVECs; assay: ECIS migration assay; assay type: cell-based, human; conditions: transfected 48 hrs (mimic 25 nM, anti-miR 75 mM)
Method: Confluent HUVECs were transfected with controls or miR-148b mimic or anti-miR-148b and, plated on the ECIS chip array (8W1E or 8W10E). The migration speed was calculated in μm/h, capacitance of the plasma membrane is Cm (μF/cm^2) as reported in Giaever, I, and Keese, C R (1991)^29.

[2] = tested on: skin wounds; assay: Mouse model of skin wound healing (full-thickness excisional wounds); assay type: in vivo; conditions: for vessel density (CD31 positive vessels) / wound perfusion (laser Doppler): topical 1 μg/wound; for wound closure / expression of targets TGFB2 and SMAD2 in wound: topical 1 μg/wound every second day; for wound closure: 7 days; for wound perfusion (laser Doppler): 5 days post wounds
Method: All experiments involving mice were performed in accordance with the guidance and the operation of Animals (Scientific Procedures) Act 1986 and prior approval of the UK Home Office and the University of Edinburgh ethic committee. Skin wound healing protocol has been performed as described before^54-56. CD-1 female mice (7-9-week-old) (n=8 per group) were randomly assigned a treatment group and anaesthetized with isofluorane. Two full-thickness excisional wounds were made to the shaved dorsal skin. Full-thickness excisional wounds were made by picking up a fold of skin and using a sterile, disposable 5-mm biopsy punch (Kai Industries), resulting in generation of one wound on each side of the midline. Control oligonucleotides (scramble sequence), miR-148b mimic, Cy3-labeled miR-148b mimic or anti-miR-148b or SMAD2 siRNA (1 μg/wound) were delivered topically by pipette into the wound cavity (10 μl in a vehicle of 30% Pluronic F-127 gel [is liquid at 4° C. but solidifies at body temperature]; Sigma Aldrich). Mimics were initially delivered after 3 days, whereas anti-miR and siRNA were delivered immediately after wounding. The treatment was performed every second day for 7 days. Wounds were photographed using an Olympus camera on days 0, 2, 4, 6, and 7 after wounding. Wound areas were calculated as previously described^54, 55. To this aim, two perpendicular diameters of the wound were measured by using a Vernier caliper and wound area was calculated using a standard formula for the area of an ellipse (semi-major diameter X semi-minor diameter X Pi). The superficial blood flow of the wounds was sequentially analysed by colour laser Doppler (Colour laser Doppler, Moor, UK), and the ratio of blood flow between the mimic or anti-miR or siRNA treated and the control treated wounds was calculated. Wound size and Doppler analysis was performed in blinded fashion.
Wounds were harvested, prepared, and analysed essentially as previously described^54-56. At days 5 or 7 post-wounding, wounds were harvested and fixed in 10% buffered formalin (16 h at 4° C., Sigma) for embedding in paraffin. Sectioning was done through the wound beyond the midpoint and wound centres as identified by staining with Haematoxylin and Eosin (Sigma). Sections were deparaffinised, rehydrated and stained with rat anti-mouse polyclonal CD31 (Abcam, ab28364, 1:50), α-SMA (Sigma, A2547, 1:100) rabbit anti-mouse FSP-1 (Abcam, ab41532, 1:50), and SLUG (Abcam, […], 1:200); all antibodies overnight at 4° C.
Zeiss LSM 780 Confocal Microscope (Zeiss). Vascular density in wounds was counted after staining for CD31 and α-SMA. Ten fields per section/animal (n=8 animal; 400× magnification) were randomly examined and averaged to analyse the number of CD31-positive blood vessels in the wound edges. Images collection was performed manually. Image analysis was performed using Image J software as previously reported in^54. Vascular density is expressed per square millimetre. EndMT of ECs was assessed by FSP-1 and SLUG staining combined with CD31 staining. CD31-FSP-1 and CD31-SLUG double positive vessels are expressed as percentage of positive vessels. For analysis of fibrosis: the slides of the staining were examined and photomicrographed in a blinded fashion using a light microscope (Axioscope 2; Zeiss). Six images per slide were captured at 400× magnification for both histological staining. The colour deconvolution ImageJ software was used to evaluate the percentage of red staining which indicate the presence of collagen fibres in the tissue. The morphometric analysis corresponding to the red colours was measured as the percentage of total pixels in each image, using the Threshold (Image J software).

[3] = tested on: HUVECs; assay: Matrigel assay (tube formation); assay type: cell-based, human; conditions: transfected 48 hrs (mimic 25 nM, anti-miR 75 mM)
Method: (§1) Lipofectamine RNAiMAX (Thermo Fisher Scientific) was used to transfect HUVECs with miR-148b mimic, anti-miR-148b and mimic or anti-miR control (25 nM and […], respectively final concentration) or with siRNA targeting SMAD2 (20 nM final concentration), according to the manufacturer's instructions. jetPEI-HUVECs (Polyplus) was used to transfect HUVECs with DNA plasmids. The following functional assays were performed: BrdU incorporation assay using Cell Proliferation colorimetric assay (Roche); Matrigel assay with HUVECs was performed as previously described using BD Matrigel Basement Membrane Matrix (BD Biosciences)^53.

[4] = tested on: HUVECs; assay: BrdU incorporation assay (EC proliferation); assay type: cell-based, human; conditions: transfected 48 hrs (mimic 25 nM, anti-miR 75 mM)
Method: as §1

Molecule	EC migration (migration speed) [1]	collagen deposition (PicroSirius Red) ([2]; day 7 after wounding)	CD31-FSP-1 or CD31-SLUG double-positive vessels in wound edge ([2]; delivered immediately after wounding and every two days, day 7)	skin vessels that demonstrated mesenchymal transition (EndMT) ([2]; following delivery to the wounds)	vessel density (CD31 positive vessels) [2]	wound closure [2]	expression of targets TGFB2 and SMAD2 in wound ([2]; day 7 after wounding)	wound perfusion (laser Doppler) [2]	total number of FSP-1 positive cells in wounds ([2]; vs control oligonucleotide-treated wounds, day 7)	tube formation / tubulogenesis in Matrigel assay (total tubules length) [3]	proliferation of HUVECs (BrdU incorporation) [4]	miR-148b expression in wound ([2]; topical, starting 3 days after wounding, day 7)
anti-miR-148b: miR-148b inhibitor oligonucleotide; suitable inhibitor: hsa-miR-148b-3p miRCURY LNA inhibitor, CAAAGTTCTGTGATGCACTG (SEQ ID NO: 6) (commercial miRCURY LNA inhibitor, LNA positions not given here)	did not cause a change	did not detect any increase	comprised of CD31-FSP-1 or CD31-SLUG double-positive vessels	around 20%	without effecting	markedly attenuated	increased	without effecting	increase	did not cause a change	decreased	–
miR-148b mimic: miR-148b mimic oligonucleotide; in a particular embodiment has SEQ ID NO: 1, the human precursor miR-148b sequence (nucleic acid, listed as RNA, chemistry not given here) CAAGCACGAUUAGCAUUUGAGGUGAAGUUCUGUUAUACACUCAGGCUGUGGCUCUCUGAAAGUCAGUGCAUCACAGAACUUUGUCUCGAAAGCUUUCUA	significantly elevated	–	–	–	significant increase	accelerated	decreasing	significant increase	–	significantly elevated	significantly increased	increased
